The values that follow come from patent US20220274983A1, “JAK KINASE INHIBITOR AND USE THEREOF” (JIANGSU CAREPHAR PHARMACEUTICAL CO., LTD., priority 2019, published 2022).

For data set [1] the following is noted: rat, in vivo, 2 mg/kg.
Method: (§1) Lewis rats (female, 10-12 weeks old) were obtained from Beijing Vital River Laboratory Animal Technology Co., Ltd. The rats were on a light and dark alternation for 12 h, and the environment was kept at a temperature of 23±2° C. and a humidity of 40-70%.
(§2) Type II collagen solution (2 mg/mL) was prepared with 0.05 M acetic acid solution to allow to be fully dissolved, and placed overnight in the dark at 4° C. During the test, 2 mg/mL type II collagen (C II) solution and 4 mg/mL complete Freund's adjuvant (CFA) solution were mixed in equal volumes under ice bath conditions to fully emulsify. On day 0, an emulsion prepared by mixing equal volumes of C II (2 mg/mL) and CFA (4 mg/mL) was injected intracutaneously into the base of the tail of experimental rats for primary immunization, and on day 7, secondary booster immunization was performed.
(§3) The therapeutic effect of the test compound was tested in a rat CIA model. The rats were randomly divided into groups with 8 animals in each group. All animals were immunized on day 0 and boosted on day 7.
(§4) Therefore, the differences in body weight and foot volume after the onset of arthritis compared with the negative group, respectively, can be used to evaluate the therapeutic effect in the rat model. The experimental data were expressed as Mean±SEM; the data between the two groups was tested by unpaired t-test and p<0.05 was considered as a significant difference.
In data set [2] the test system is rat CIA model. The data set is described as follows: Hindfoot foot volume in rat CIA model. In kind it is in vivo, Lewis rats. Particulars: CIA rats, hindfoot, 2 mg/kg oral gavage once daily for 2 w.
Method: as §1, §2, §3, §4
For data set [3], the system named is rat CIA model. The data set is described as follows: Arthritis index (AI) of extremities in rat CIA model.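 Note: rats immunized with type II collagen plus complete Freund's adjuvant on day 0, boosted day 7, groups of 8, each paw graded 0-4 for swelling or redness, higher means worse.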 The conditions noted are these: CIA rats, 2 mg/kg oral gavage once daily for 2 w, score 0-16.
Method: as §1, §2, §3
Foot volume was scored for the swelling of four toes at the same time, the score for each foot was 0-4, and the highest score for each rat was 16. 0—no swelling, normal appearance; 1—mild swelling or redness of the ankle joint, wrist joint or finger joint; 2—moderate swelling or redness of the ankle joint, wrist joint or finger joint; 3—severe swelling or redness of the ankle joint, wrist joint or finger joint; 4—very severe swelling or redness of the ankle joint, wrist joint or finger joint.

Structures are written as SMILES. Counter-ions that a name gives are not always drawn.

On to `C[C@@H]1CCN(C(=O)CC#N)C[C@@H]1N(C)c1ncnc2[nH]ccc12` [Tofacitinib, tofacitinib citrate, reference compound], for which, in data set [1], the “body weight course, in words” value was “increased slightly on days 11-17, but then fell back”. The “Foot volume (ml)/Day” value in data set [2] (day 0) worked out at 2.637 ± 0.020 mL; in data set [2] (day 8) it was 2.619 ± 0.019 mL; in data set [2] (day 11) it was 2.646 ± 0.045 mL; in data set [2] (day 14), 3.848 ± 0.333 mL; in data set [2] (day 17), 4.636 ± 0.306 mL; in data set [2] (day 21), 4.710 mL. Moreover, the “Foot volume (ml)/Day” value in data set [2] (day 24) came to 4.509 mL; in data set [2] (day 28), 4.125 mL. Besides, the “Arthritis index/Day” value in data set [3] (day 0) is 0 ± 0; in data set [3] (day 8) it was 0 ± 0; in data set [3] (day 11) it was 0.63 ± 0.32; in data set [3] (day 14), 3.75 ± 0.77; in data set [3] (day 17), 5.25 ± 0.62; in data set [3] (day 21), 8.75 ± 0.59. In addition, the “Arthritis index/Day” value in data set [3] (day 24) amounted to 8.75 ± 0.73; in data set [3] (day 28), 7.88 ± 0.58.
